Experiments:
PC3 (prostate) = experiment: In vitro cytotoxic activity MTT assay, PC3; assay type: cell-based; details: Homo sapiens; cells exposed for 96 hours; read-out: Cytotoxicity activity IC50, PC3 (prostate)
Procedure: (§1) Compounds 1-16 were screened for their in vitro cytotoxic activity utilizing a 3-(4,5-dimethyl-thiazol-2-yl)-2,5-diphenyltetrazolium bromide (MTT) assay against selected cancer human cell lines consisting of PC3 (prostate), HCT116 (colon), A375 (melanoma), H1299 (lung), MIAPaCa-2 (pancreas), HL60 (leukemia), MCF7 (breast), MDA-MB-231 (breast) (T. Mosmann, J. Immunol. Meth., 1983, 65, 55-63). The cells were cultured at 37° C. in RMPI1640 medium supplemented with 10% fetal bovine serum, 50 IU/mL penicillin, and 50 μg/mL streptomycin in a 5% CO2 incubator. All cells were sub-cultured 3 times/week by trypsinisation. Viable cells were seeded and allowed to adhere for 12 hours before a test drug was added in 96-well plates at an initial density of 1.0×10^5 cells/mL. Tumor cell lines were separately exposed to various concentrations of the tested compounds followed by incubation at a temperature of 37° C. during 96 hours inside a medium of fresh RMPI 1640. Cells were subsequently incubated at 37° C. using MTT at 0.5 mg/mL during 4 hours. After removal of supernatant, formazan crystals were dissolved in isopropanol and the optical density was measured at 570 nm. CX-4945 was used as a positive control.

[1] = target: T1, recombinant human CK2 (RRββ-holoenzyme) (Homo sapiens, UniProt P68400); experiment: CK2 Kinase Assay (33P-ATP, substrate peptide RRRDDDSDDD); assay type: biochemical; details: final ATP concentration 15 μM, 10 min at 30° C.; read-out: protein kinase CK2 IC50
T1 construct: purchased Millipore
Procedure: CK2 Kinase Assay was conducted using the protocol as described in Pierre F. et al; J. Med. Chem. 2011, 54, 635-654. The tested compounds in aqueous solution were added at a volume of 10 μL to a reaction mixture comprising 10 μL of assay dilution buffer (ADB; 20 mM MOPS, pH 7.2, 25 mM β-glycerol phosphate, 5 mM EGTA, 1 mM sodium orthovanadate, and 1 mM dithiothreitol), 10 μL of substrate peptide (RRRDDDSDDD, dissolved in ADB at a concentration of 1 mM), 10 μL of recombinant human CK2 (RRββ-holoenzyme, 25 ng dissolved in ADB; Millipore). Reactions were initiated by the addition of 10 μL of ATP solution (90% 75 mMMgCl2, 75 μM ATP (final ATP concentration: 15 μM) dissolved in ADB; 10% [γ-33P] ATP (stock 1mCi/100 L; 3000 Ci/mmol (Perkin-Elmer) and maintained for 10 min at 30° C. The reactions were quenched with 100 μL of 0.75% phosphoric acid and then transferred to and filtered through a phosphor cellulose filter plate (Millipore). After washing each well five times with 0.75% phosphoric acid, the plate was dried under vacuum for 5 min and, following the addition of 15 μL of scintillation fluid to each well, the residual radioactivity was measured using a Wallac luminescence counter. The IC50 values were derived from eight concentrations of test inhibitors.

HCT116 (colon) = experiment: In vitro cytotoxic activity MTT assay, HCT116; assay type: cell-based; details: Homo sapiens, HCT-116; cells exposed for 96 hours; read-out: Cytotoxicity activity IC50, HCT116 (colon)
Procedure: as §1

H1299 (lung) = experiment: In vitro cytotoxic activity MTT assay, H1299; assay type: cell-based; details: Homo sapiens, NCI-H1299; cells exposed for 96 hours; read-out: Cytotoxicity activity IC50, H1299 (lung)
Procedure: as §1

MCF7 (breast) = experiment: In vitro cytotoxic activity MTT assay, MCF7; assay type: cell-based; details: Homo sapiens, cells exposed for 96 hours, read-out: Cytotoxicity activity IC50, MCF7 (breast)
Procedure: as §1

MDA-MB-231 (breast) = experiment: In vitro cytotoxic activity MTT assay, MDA-MB-231; assay type: cell-based; details: Homo sapiens, cells exposed for 96 hours, read-out: Cytotoxicity activity IC50, MDA-MB-231 (breast)
Procedure: as §1

HL60 (leukemia) = experiment: In vitro cytotoxic activity MTT assay, HL60; assay type: cell-based; details: Homo sapiens, HL-60; cells exposed for 96 hours; read-out: Cytotoxicity activity IC50, HL60 (leukemia)
Procedure: as §1

A375 (melanoma) = experiment: In vitro cytotoxic activity MTT assay, A375; assay type: cell-based; details: Homo sapiens, A-375; cells exposed for 96 hours; read-out: Cytotoxicity activity IC50, A375 (melanoma)
Procedure: as §1

MIAPaCa-2 (pancreas) = experiment: In vitro cytotoxic activity MTT assay, MIAPaCa-2; assay type: cell-based; details: Homo sapiens, MIA PaCa-2; cells exposed for 96 hours; read-out: Cytotoxicity activity IC50, MIAPaCa-2 (pancreas)
Procedure: as §1

T1 sequence (P68400 whole entry): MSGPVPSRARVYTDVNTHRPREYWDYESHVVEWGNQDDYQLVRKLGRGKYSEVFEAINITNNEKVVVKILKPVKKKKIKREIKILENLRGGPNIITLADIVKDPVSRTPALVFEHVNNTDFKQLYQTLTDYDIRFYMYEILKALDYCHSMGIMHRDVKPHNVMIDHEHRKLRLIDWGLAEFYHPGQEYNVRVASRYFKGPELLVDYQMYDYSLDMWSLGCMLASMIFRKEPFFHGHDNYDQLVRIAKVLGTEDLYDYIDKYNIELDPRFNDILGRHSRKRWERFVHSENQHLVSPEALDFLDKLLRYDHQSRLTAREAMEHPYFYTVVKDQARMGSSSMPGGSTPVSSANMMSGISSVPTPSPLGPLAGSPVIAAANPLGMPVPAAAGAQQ
T1 sequence (P67870 whole entry partner): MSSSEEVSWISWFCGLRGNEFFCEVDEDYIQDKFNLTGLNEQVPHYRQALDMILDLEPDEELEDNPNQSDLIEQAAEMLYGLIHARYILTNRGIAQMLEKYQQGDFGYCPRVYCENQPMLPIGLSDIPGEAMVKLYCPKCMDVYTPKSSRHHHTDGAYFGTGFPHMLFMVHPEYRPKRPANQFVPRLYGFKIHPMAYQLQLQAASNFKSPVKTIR

IC50 [1]: 24 nM
Compound: O=C(O)c1nnn2c1nc(Nc1cccc(Cl)c1)c1ccncc12 [Compound 1, 5-((3-chlorophenyl)amino)pyrido[4,3-e][1,2,3]triazolo[1,5-a]pyrimidine-3-carboxylic acid]
IC50 (PC3 (prostate)): 1400 nM
IC50 (HCT116 (colon)): 2500 nM
IC50 (H1299 (lung)): 3.3 µM
IC50 (MCF7 (breast)): 4.7 µM
IC50 (MDA-MB-231 (breast)): 4.2 µM
IC50 (HL60 (leukemia)): 5.4 µM
IC50 (A375 (melanoma)): 5.7 µM
IC50 (MIAPaCa-2 (pancreas)): 1100 nM

From US12018026B1, “Pyrido[4,3-e][1,2,3]triazolo[1,5-a]pyrimidine as CK2 inhibitors” (KING FAISAL UNIVERSITY, priority 2024, dated 2024)
